{"source": "patent US5919934A", "about": "“Compounds, compositions, and methods for cancer imaging and therapy” (The George Washington University, priority 1997, dated 1999)", "key": {"sigma receptors [1]": {"target": "T1, sigma receptors (Homo sapiens, UniProt Q5BJF2)", "T1 construct": "MCF-7 breast tumor cells express sigma receptors; host or cells: MCF-7 cells", "settings": "MCF-7 cells, Scatchard's analysis; cited from earlier work"}, "sigma receptors [2]": {"tested_on": "sigma receptors", "settings": "human breast and melanoma tumor cells; cited from earlier work"}, "sigma receptor": {"tested_on": "sigma receptor", "settings": "guinea pig brain; cited from earlier work"}, "[3]": {"tested_on": "sigma-1 and sigma-2 receptors", "experiment": "In-vivo blocking with BD1008 in Sprague-Dawley rats", "settings": "2 micromol BD1008 co-injected", "experimental": "Animal biodistribution and blocking studies were performed in rats as follows. Sprague Dawley rats (200-250 g) were anesthetized with ketamine/xylazine and injected intravenously with ^99m Tc-EN6, XXIII, ([…]) in 0.2 ml saline containing up to 20% ethanol solution. At 0.5, 1, and 4 hr post-injection blood samples were drawn by cardiac puncture and the rats were sacrificed thereafter by cardiectomy while under ketamine/xylazine anesthesia. The organs of interest were then excised, blotted with tissue paper, weighed and the radioactivity counted. The % injected dose/organ was determined by comparison of the tissue radioactivity with suitably diluted, known quantity aliquots of the injected dose. […] The animals were sacrificed at 4 hr post-injection and the organs of interest were removed and handled as above.\nS. B. Hellewell, et al., Rat liver and kidney contain high densities of sigma-1 and sigma-2 receptors: characterization by ligand binding and photoaffinity labeling, Eur. J. Pharmacol.--Mol. Pharmacol. Sect. 268:9-18 (1994), all of which are hereby incorporated by reference."}, "sigma receptors [4]": {"tested_on": "sigma receptors", "type": "binding, human", "settings": "T47D cells; for IC50: 37° C., 1 hr, against [Tc-99m]EN6, read-out: IC50 for inhibition of binding of [Tc-99m]EN6", "experimental": "T47D human ductal breast carcinoma cells were purchased from ATCC, Rockville, Md. and cultured in serum supplemented medium DMEM containing 10% heat inactivated fetal bovine serum (GIBCO) at 37° C. The cells were adherent and split weekly in a 1:20 ratio using trypsin/EDTA (GIBCO). The cells were then transferred to 24 well plates and allowed to be adherent and confluent (about 0.5 million cells) or the cells were grown in T75 cell culture flasks and were detached when they were confluent using trypsin/EDTA (0.025%) or scraped with a cell scraper in DMEM.\nCompetition binding studies in human ductal breast cancer cells (T47D) were performed as follows. T47D cells were cultured in serum supplemented medium (RPMI-1640) containing 10% heat inactivated fetal bovine serum (GIBCO) at 37° C. The cells were adherent and split weekly in a 1:20 ratio using trypsin/EDTA (GIBCO). The cells were scraped using a cell scraper from T75 culture flasks and centrifuged in a Sorvall 6000B centrifuge at a speed of 4000 rpm. The growth medium was removed and the cell pellet was resuspended in […] serum free media.\nThe affinity of compounds for sites labeled by [Tc-99m]EN6 in human breast cancer cells was determined by heterologous in-vitro competitive binding assays in whole cells. The following method was used: A small aliquot of the cell suspension (100 μL) was incubated with [Tc-99m]EN6 and varying concentrations to (10^-4 to 10^-12 M) of arylethylenediamines keeping a total volume 1.0 mL constant. The cells were incubated at 37° C. for 1 hr and subsequently filtered through a Brandel Cell harvester (Brandel, Gaithersburg, Md.) and washed with de-ionized cold water. The radioactivity associated with the cells on filters was counted on a Beckman (DP 5500) Gamma Counter.\nThe data was analyzed with the iterative nonlinear least square curve fitting program GraphPAD Inplot (Graph PAD Software, San Diego, Calif.). The Cheng-Prussoff equation was then used to convert IC50 values to apparent K1 values."}, "sigma-2 sites": {"target": "T2, sigma-2 sites (Rattus norvegicus, UniProt Q5U3Y7)", "T2 construct": "sigma-2 sites in rat liver membrane preparation; from tissue; host or cells: rat liver membranes", "T2 sequence (Q5U3Y7 1-176)": "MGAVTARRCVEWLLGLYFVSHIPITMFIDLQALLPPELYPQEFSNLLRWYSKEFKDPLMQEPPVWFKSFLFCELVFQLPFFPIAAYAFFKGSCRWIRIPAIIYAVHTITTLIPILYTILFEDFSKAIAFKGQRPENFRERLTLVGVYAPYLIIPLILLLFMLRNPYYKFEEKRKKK", "experiment": "Sigma-2 binding in rat liver membrane preparation against [^3 H]DTG in the presence of dextrallorphan"}, "[5]": {"tested_on": "non-melanoma cells in the liver and lung", "settings": "cited from earlier work"}, "sigma-1 sites": {"target": "T3, sigma-1 sites (Cavia porcellus, UniProt Q60492)", "T3 construct": "sigma-1 sites in guinea pig brain; from tissue; host or cells: guinea pig brain", "T3 sequence (Q60492 whole entry)": "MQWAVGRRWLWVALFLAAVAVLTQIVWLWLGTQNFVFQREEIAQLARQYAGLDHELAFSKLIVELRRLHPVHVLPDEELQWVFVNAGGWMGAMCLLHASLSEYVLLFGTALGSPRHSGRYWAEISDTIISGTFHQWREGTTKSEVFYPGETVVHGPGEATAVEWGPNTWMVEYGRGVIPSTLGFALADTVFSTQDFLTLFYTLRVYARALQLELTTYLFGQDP", "experiment": "Sigma-1 binding in guinea pig brain against [^3 H]-(+)-pentazocine"}}, "note": "Read-outs that look alike come from different tables or passages of the source.", "data": [{"smiles": "O=C(NC1CCN(Cc2ccccc2)CC1)c1ccc([125I])cc1", "note": "[4-[^125 I]-4-(N-benzylpiperidin-4-yl)-4-iodobenzamide]", "values": [{"measurement": "receptors per cell", "setting": "sigma receptors [1]", "value": "approximately a million"}]}, {"smiles": "CN(CCc1ccc([125I])cc1)CCN1CCCCC1", "note": "[4-[^125 I]PEMP, [^125 I]N-[2-(4-iodophenyl)ethyl]-N-methyl-2-(1-piperidinyl)ethylamine]", "values": [{"measurement": "specific binding to the sigma receptors", "setting": "sigma receptors [2]", "value": "very high specific binding"}, {"measurement": "inhibition binding isotherms", "setting": "sigma receptor", "value": "consistent with sigma receptor pharmacology"}]}, {"smiles": "CN(CCc1ccc(Cl)c(Cl)c1)CCN1CCCC1", "note": "[BD1008]", "values": [{"measurement": "inhibition of binding of ^99m Tc-complex in the kidneys", "setting": "[3]; kidneys, 4 hr post-i.v. injection", "value": "about 60%"}, {"measurement": "reduction of radioactivity in liver", "setting": "[3]; liver, 4 hr post-injection", "value": 34, "unit": "%"}, {"measurement": "reduction of radioactivity in lungs", "setting": "[3]; lungs, 4 hr post-injection", "value": 48, "unit": "%"}, {"measurement": "inhibition of [Tc-99m]EN6 binding", "setting": "sigma receptors [4]", "value": "dose-dependent inhibition of binding"}, {"measurement": "IC50", "setting": "sigma receptors [4]", "value": "0.047 ± 0.002", "unit": "µM"}, {"measurement": "Ki", "setting": "sigma-2 sites; rat liver membrane, against [^3 H]DTG in the presence of dextrallorphan, read-out: Ki for sigma-2 sites", "value": "0.0081 ± 0.0022", "unit": "µM"}]}, {"smiles": "CCN(CC)CCNC(=O)c1ccc(I)cc1", "note": "[IDAB, N-(diethylaminoethyl)4-iodobenzamide]", "values": [{"measurement": "uptake by non-melanoma cells", "setting": "[5]", "value": "taken up in high concentrations"}]}, {"smiles": "CN(CCc1ccc(I)cc1)CCN1CCCCC1", "note": "[IPEMP]", "values": [{"measurement": "Ki", "setting": "sigma-1 sites", "value": "0.00082 ± 0.00013", "unit": "µM"}, {"measurement": "inhibition of [Tc-99m]EN6 binding", "setting": "sigma receptors [4]", "value": "dose-dependent inhibition of binding"}, {"measurement": "IC50", "setting": "sigma receptors [4]", "value": "0.059 ± 0.005", "unit": "µM"}, {"measurement": "Ki", "setting": "sigma-2 sites", "value": "0.0152 ± 0.00235", "unit": "µM"}]}]}
